These results are taken from PMC9855884, “Glycosylated Lipopeptides—Synthesis and Evaluation of Antimicrobial Activity and Cytotoxicity” (Biomolecules, 2023).

≈ marks a conversion by molar mass, not a printed value. Where a SMILES comes first, the peptide text is derived from it. The star is where a group is joined. Stearoyl = CCCCCCCCCCCCCCCCCC(=O)*; Palmitoyl = CCCCCCCCCCCCCCCC(=O)*

For orientation: MIC means the lowest concentration that inhibits growth of the organism. Lower therefore signals a more susceptible organism. A word on the IC50: it is the concentration that inhibits the measured activity by half.

The subject of the first series is E. faecium ATCC 700221.
Assay: not given
Conditions: ATCC 700221, 18 h. Type of series: cell-based, Enterococcus faecium. The procedure: (§1) The Acinetobacter baumannii ATCC BAA-1605, Enterococcus faecium ATCC 700221, Klebsiella aerogenes ATCC 13048, Klebsiella pneumoniae ATCC 700603, Pseudomonas aeruginosa ATCC 9027, Staphylococcus aureus ATCC 33591, Candida glabrata ATCC 15126, strains were acquired from the American Type Culture Collection (ATCC). All the strains were stored at −80 °C in Roti-Store cryo vials and were transferred into fresh Mueller–Hinton broth (MHB, Becton Dickinson, Warsaw, Poland) for bacteria or RPMI-1640 (Sigma-Aldrich, Steinheim, Germany) for fungi before the tests and incubated for 24 h at 37 °C. Then, the cultures were seeded on the Mueller–Hinton agar (BioMaxima, Lublin, Poland) or Sabouraud dextrose agar (SDA, BioMaxima, Lublin, Poland) plates, respectively, and incubated as just mentioned. These agar cultures were used for further microbiological assays. Cell densities for all assays were adjusted spectrophotometrically (Multiskan GO Microplate Spectrophotometer, Thermo Fisher Scientific, Vantaa, Finland) at 600 and 530 nm for bacteria and fungi, respectively.
(§2) The MICs were determined using a broth microdilution method according to the Clinical and Laboratory Standard Institute guidelines. For this purpose, initial inoculums of bacteria (5 × 10^5 CFU/mL) in MHB and yeasts (2 × 10^3 CFU/mL) in RPMI-1640 with 2% D-glucose were exposed to the ranging concentration of lipopeptides (1–512 μg/mL) and incubated at 37 °C for 18 h and 24 h, respectively. The experiments were conducted on 96-well microtiter polystyrene plates (Kartell, Italy). The growth was assessed visually after incubation and the MIC was assumed as the lowest peptide concentration at which a noticeable growth of microorganisms was inhibited. All experiments were conducted in triplicate.
`CCCCCCCCCCCCCCCC(=O)N[C@@H](CCCNC(=N)N)C(=O)N[C@@H](CCCNC(=N)N)C(=O)N[C@@H](CO)C(N)=O` [Peptide 6, C16-RRS-NH2] (Palmitoyl-Arg-Arg-Ser-NH2) gave an MIC of 8 µg/mL (≈ 12.2 µM).
Still for that read-out and setting: the figure for `CCCCCCCCCCCCCCCCCC(=O)N[C@@H](CO)C(=O)N[C@@H](CCCNC(=N)N)C(=O)N[C@@H](CCCNC(=N)N)C(N)=O` [Peptide 7, C18-SRR-NH2] (Stearoyl-Ser-Arg-Arg-NH2) is 8 µg/mL (≈ 11.7 µM); for `CCCCCCCCCCCCCCCCCC(=O)N[C@@H](CCCNC(=N)N)C(=O)N[C@@H](CO)C(=O)N[C@@H](CCCNC(=N)N)C(N)=O` [Peptide 8, C18-RSR-NH2] (Stearoyl-Arg-Ser-Arg-NH2) it is 8 µg/mL (≈ 11.7 µM).
Molecule `CCCCCCCCCCCCCCCCCC(=O)N[C@@H](CCCNC(=N)N)C(=O)N[C@@H](CCCNC(=N)N)C(=O)N[C@@H](CO)C(N)=O` [Peptide 9, C18-RRS-NH2] (Stearoyl-Arg-Arg-Ser-NH2) returned an MIC of 8 µg/mL (≈ 11.7 µM).

A further series has as its system S. aureus ATCC 33591.
Assay: not given
The format is cell-based, Staphylococcus aureus. Conditions: ATCC 33591, 18 h. The procedure:
as §1, §2
Turning to `CCCCCCCCCCCCCCCC(=O)N[C@@H](CCCNC(=N)N)C(=O)N[C@@H](CCCNC(=N)N)C(=O)N[C@@H](CO)C(N)=O` [Peptide 6, C16-RRS-NH2] (Palmitoyl-Arg-Arg-Ser-NH2), the MIC stood at 8 µg/mL (≈ 12.2 µM).
The molecule `CCCCCCCCCCCCCCCCCC(=O)N[C@@H](CO)C(=O)N[C@@H](CCCNC(=N)N)C(=O)N[C@@H](CCCNC(=N)N)C(N)=O` [Peptide 7, C18-SRR-NH2] (Stearoyl-Ser-Arg-Arg-NH2) had an MIC of 16 µg/mL (≈ 23.4 µM).
On to `CCCCCCCCCCCCCCCCCC(=O)N[C@@H](CCCNC(=N)N)C(=O)N[C@@H](CO)C(=O)N[C@@H](CCCNC(=N)N)C(N)=O` [Peptide 8, C18-RSR-NH2] (Stearoyl-Arg-Ser-Arg-NH2), for which the minimal inhibitory concentration (MIC) came out at 16 µg/mL (≈ 23.4 µM).
Molecule `CCCCCCCCCCCCCCCCCC(=O)N[C@@H](CCCNC(=N)N)C(=O)N[C@@H](CCCNC(=N)N)C(=O)N[C@@H](CO)C(N)=O` [Peptide 9, C18-RRS-NH2] (Stearoyl-Arg-Arg-Ser-NH2) yielded a minimum inhibitory concentration (MIC) of 8 µg/mL (≈ 11.7 µM).

The test system of the next series is K. pneumoniae ATCC 700603.
Assay: not given
The format is cell-based, Klebsiella pneumoniae. Conditions: ATCC 700603, 18 h. Here is the method:
as §1, §2
`CCCCCCCCCCCCCCCC(=O)N[C@@H](CCCNC(=N)N)C(=O)N[C@@H](CCCNC(=N)N)C(=O)N[C@@H](CO)C(N)=O` [Peptide 6, C16-RRS-NH2] (Palmitoyl-Arg-Arg-Ser-NH2): the minimal inhibitory concentration (MIC) was 32 µg/mL (≈ 48.9 µM).
The molecule `CCCCCCCCCCCCCCCCCC(=O)N[C@@H](CO)C(=O)N[C@@H](CCCNC(=N)N)C(=O)N[C@@H](CCCNC(=N)N)C(N)=O` [Peptide 7, C18-SRR-NH2] (Stearoyl-Ser-Arg-Arg-NH2) returned a minimal inhibitory concentration (MIC) of 16 µg/mL (≈ 23.4 µM).
With `CCCCCCCCCCCCCCCCCC(=O)N[C@@H](CCCNC(=N)N)C(=O)N[C@@H](CO)C(=O)N[C@@H](CCCNC(=N)N)C(N)=O` [Peptide 8, C18-RSR-NH2] (Stearoyl-Arg-Ser-Arg-NH2), the MIC is listed as 32 µg/mL (≈ 46.9 µM).
Molecule `CCCCCCCCCCCCCCCCCC(=O)N[C@@H](CCCNC(=N)N)C(=O)N[C@@H](CCCNC(=N)N)C(=O)N[C@@H](CO)C(N)=O` [Peptide 9, C18-RRS-NH2] (Stearoyl-Arg-Arg-Ser-NH2) registered an MIC of 16 µg/mL (≈ 23.4 µM).

In the next series the test system is A. baumannii ATCC BAA 1605.
Assay: not given
The format is cell-based, Acinetobacter baumannii. Conditions: ATCC BAA 1605, 18 h. Here is the method:
as §1, §2
Molecule `CCCCCCCCCCCCCCCC(=O)N[C@@H](CCCNC(=N)N)C(=O)N[C@@H](CCCNC(=N)N)C(=O)N[C@@H](CO)C(N)=O` [Peptide 6, C16-RRS-NH2] (Palmitoyl-Arg-Arg-Ser-NH2) registered a minimal inhibitory concentration (MIC) of 32 µg/mL (≈ 48.9 µM).
On the same count and under the same terms, the figure for `CCCCCCCCCCCCCCCCCC(=O)N[C@@H](CO)C(=O)N[C@@H](CCCNC(=N)N)C(=O)N[C@@H](CCCNC(=N)N)C(N)=O` [Peptide 7, C18-SRR-NH2] (Stearoyl-Ser-Arg-Arg-NH2) is 32 µg/mL (≈ 46.9 µM); for `CCCCCCCCCCCCCCCCCC(=O)N[C@@H](CCCNC(=N)N)C(=O)N[C@@H](CO)C(=O)N[C@@H](CCCNC(=N)N)C(N)=O` [Peptide 8, C18-RSR-NH2] (Stearoyl-Arg-Ser-Arg-NH2) it is 64 µg/mL (≈ 93.7 µM); for `CCCCCCCCCCCCCCCCCC(=O)N[C@@H](CCCNC(=N)N)C(=O)N[C@@H](CCCNC(=N)N)C(=O)N[C@@H](CO)C(N)=O` [Peptide 9, C18-RRS-NH2] (Stearoyl-Arg-Arg-Ser-NH2) it is 32 µg/mL (≈ 46.9 µM).

Another series relates to C. glabrata ATCC 15126.
Assay: not given
The format is cell-based, Candida glabrata. Conditions: ATCC 15126, 24 h. Here is the method:
as §1, §2
`CCCCCCCCCCCCCCCC(=O)N[C@@H](CCCNC(=N)N)C(=O)N[C@@H](CCCNC(=N)N)C(=O)N[C@@H](CO)C(N)=O` [Peptide 6, C16-RRS-NH2] (Palmitoyl-Arg-Arg-Ser-NH2) registered a minimum inhibitory concentration (MIC) of 8 µg/mL (≈ 12.2 µM).
The same measure, in the same setting: next, `CCCCCCCCCCCCCCCCCC(=O)N[C@@H](CO)C(=O)N[C@@H](CCCNC(=N)N)C(=O)N[C@@H](CCCNC(=N)N)C(N)=O` [Peptide 7, C18-SRR-NH2] (Stearoyl-Ser-Arg-Arg-NH2): 4 µg/mL (≈ 5.86 µM); `CCCCCCCCCCCCCCCCCC(=O)N[C@@H](CCCNC(=N)N)C(=O)N[C@@H](CO)C(=O)N[C@@H](CCCNC(=N)N)C(N)=O` [Peptide 8, C18-RSR-NH2] (Stearoyl-Arg-Ser-Arg-NH2): 4 µg/mL (≈ 5.86 µM); `CCCCCCCCCCCCCCCCCC(=O)N[C@@H](CCCNC(=N)N)C(=O)N[C@@H](CCCNC(=N)N)C(=O)N[C@@H](CO)C(N)=O` [Peptide 9, C18-RRS-NH2] (Stearoyl-Arg-Arg-Ser-NH2): 4 µg/mL (≈ 5.86 µM).

System in a further series: not listed separately
As to the kind of experiment: MTT assay, cytotoxicity. The format is cell-based, human. Conditions: human, HaCaT keratinocytes, 24 h incubation at 37 °C, 0.5–500 μg/mL, six replicates per concentration, repeated at least twice. The procedure:
To evaluate the cytotoxicity of the test peptides (IC50), the classic MTT assay on 96-well plates was performed for human keratinocytes (HaCaT) which were acquired from the ATCC. The assay was based on colorimetric determination of the cell metabolic activity where the color intensity reflected the number of live cells that could be measured spectrophotometrically. The cell line was cultured in a Dulbecco’s modified Eagle Medium (Invitrogen) supplemented with 10% fetal bovine serum (v/v), 100 units/mL of penicillin, 100 μg/mL of streptomycin, and 2 mM L-glutamine and was kept at 37 °C in a humidified 5% CO2 incubator. Briefly, a day after plating of 500 cells per well, a series of concentrations (0.5–500 μg/mL) of the test compounds were applied. DMSO was added to the control cells at a final concentration of 1.0% (v/v), which was related to the maximum concentration of the solvent compounds used in the experiment. After 24 h of incubation at 37 °C (humidified 5% CO2 incubator) with the peptides, a medium containing 1 mg/mL of MTT was added to the wells up to a final concentration of 0.5 mg/mL. Subsequently, the plates were incubated at 37 °C for 4 h. Then, the medium was aspirated, and the formazan product was solubilized with DMSO. The background absorbance at 630 nm was subtracted from that at 570 nm for each well (Epoch, BioTek Instruments, Winooski, VT, USA). Six replicates were conducted for each concentration. All experiments were repeated at least twice and the resulting IC50 values were calculated with a GraFit 7 software (v. 7.0, Erithacus, Berkley, CA, USA).
The selectivity indexes were calculated for all the strains as IC50/MIC. According to IC50, in most cases, glycosylation caused only a slight decrease in toxicity. However, in contrast with SI calculated for HC50, the differences between USCLs and gUSCLs are not so distinct. […] Moreover, toxicity of USCLs and gUSCLs is high and exceeds their antimicrobial activity. The lipopetides were not selective against Gram-negative strains (K. pneumoniae, A. baumannii, P. aeruginosa, K. aerogenes) over human cells. A few USCLs were selective (SI > 1) against E. faecium and S. aureus with SI up to 1.87; and some gUSCLs were selective against E. faecium but not against S. aureus, with SI between 0.63 and 1.73. […] In this case, SI of gUSCLs was noticeably […] than that of corresponding parent USCLs (2.07, 1.99, 2.67 vs. 2.53, 2.36, 3.46, respectively). Selectivity indexes were plotted against adjusted retention time (Figures S15–S21). A moderate linear correlation was found in USCLs and K. pneumoniae, C. glabrata, and gUSCLs and K. pneumoniae, K. aerogenes (R^2 between 0.6064 and 0.6481). A relatively high linear correlation was obtained for USCLs and K. aerogenes (R^2 of 0.8214) and also for gUSCLs and C. glabrata (R^2 of 0.9223).
The molecule `CCCCCCCCCCCCCCCC(=O)N[C@@H](CCCNC(=N)N)C(=O)N[C@@H](CCCNC(=N)N)C(=O)N[C@@H](CO)C(N)=O` [Peptide 6, C16-RRS-NH2] (Palmitoyl-Arg-Arg-Ser-NH2) displayed a half-maximal inhibitory concentration (IC50) at 24 h of 7.84 ± 1.44 µg/mL (≈ 12 µM).
Consider `CCCCCCCCCCCCCCCCCC(=O)N[C@@H](CO)C(=O)N[C@@H](CCCNC(=N)N)C(=O)N[C@@H](CCCNC(=N)N)C(N)=O` [Peptide 7, C18-SRR-NH2] (Stearoyl-Ser-Arg-Arg-NH2), for which the 50% inhibitory concentration (IC50) at 24 h stood at 8.28 ± 1.18 µg/mL (≈ 12.1 µM).
Still for that read-out and setting: the figure for `CCCCCCCCCCCCCCCCCC(=O)N[C@@H](CCCNC(=N)N)C(=O)N[C@@H](CO)C(=O)N[C@@H](CCCNC(=N)N)C(N)=O` [Peptide 8, C18-RSR-NH2] (Stearoyl-Arg-Ser-Arg-NH2) is 7.97 ± 1.51 µg/mL (≈ 11.7 µM); for `CCCCCCCCCCCCCCCCCC(=O)N[C@@H](CCCNC(=N)N)C(=O)N[C@@H](CCCNC(=N)N)C(=O)N[C@@H](CO)C(N)=O` [Peptide 9, C18-RRS-NH2] (Stearoyl-Arg-Arg-Ser-NH2) it is 10.7 ± 1.61 µg/mL (≈ 15.6 µM).
